What all share (assay type): functional
The test system of experiment [1] is Enterococcus faecalis. In words: Minimum inhibitory concentration against Enterococcus faecalis (VanB, ATCC 51299).
For experiment [2], the system named is Staphylococcus aureus. In words: Minimum inhibitory concentration against Staphylococcus aureus (ATCC 25923).
Experiment [3] relates to Enterococcus faecalis. In words: Minimum inhibitory concentration against Enterococcus faecalis (VanA, BM4166).

The structures appear in SMILES notation. Converted amounts (≈) assume the structure as drawn.

As usually defined, the MIC is the smallest concentration in the dilution series that meets the test's criterion for growth inhibition. As to `Cc1c(O)cc2cc1Oc1cc(ccc1O)[C@@H](N)C(=O)N[C@H]1C(=O)N[C@@H]2C(=O)N[C@H]2C(=O)N[C@H]3C(=O)N[C@H](C(=O)N[C@@H](C(=O)O)c4cc(O)cc(O[C@H]5O[C@H](CO)[C@@H](O)[C@H](O)[C@@H]5O)c4-c4cc3ccc4O)[C@H](O[C@H]3C[C@@H](N)[C@@H](O)[C@H](C)O3)c3ccc(cc3)Oc3cc2cc(c3O[C@H]2O[C@@H](CO[C@H]3O[C@H](C)[C@@H](O)[C@H](O)[C@@H]3O)[C@H](O)[C@@H](O)[C@@H]2O[C@H]2O[C@H](CO)[C@@H](O)[C@H](O)[C@@H]2O[C@H]2O[C@H](CO)[C@@H](O)[C@@H]2O)Oc2ccc(cc2)[C@H]1O` [RISTOCETIN], the MIC in experiment [1] was 12.5 µg/mL (≈ 6.09 µM); in experiment [2] it was 1.6 µg/mL (≈ 0.779 µM); in experiment [3], more than 100 µg/mL.
The corresponding values for `COC(=O)C1NC(=O)C2NC(=O)C(NC(=O)C3NC(=O)C4NC(=O)[C@H](NC(=O)[C@H](N)c5ccc(O)c(c5)Oc5cc4cc(O)c5C)[C@H](O)c4ccc(cc4)Oc4cc3cc(c4OC)Oc3ccc(cc3)C2O)c2ccc(O)c(c2)-c2c(OC)cc(O)cc21` (stereo partly specified) are 3.2 µg/mL (≈ 2.66 µM), 3.2 µg/mL (≈ 2.66 µM) and more than 100 µg/mL.
On to `CN[C@H](CC(C)C)C(=O)N[C@H]1C(=O)N[C@@H](CC(N)=O)C(=O)N[C@H]2C(=O)N[C@H]3C(=O)N[C@H](C(=O)N[C@H](C(=O)O)c4cc(O)cc(O)c4-c4cc3ccc4O)[C@H](O)c3ccc(c(Cl)c3)Oc3cc2cc(c3O[C@@H]2O[C@H](CO)[C@@H](O)[C@H](O)[C@H]2O[C@H]2C[C@](C)(N)[C@H](O)[C@H](C)O2)Oc2ccc(cc2Cl)[C@H]1O` [VANCOMYCIN], for which the MIC in experiment [1] is 25 µg/mL (≈ 17.3 µM); in experiment [2], 0.8 µg/mL (≈ 0.552 µM); in experiment [3], more than 100 µg/mL.
For the compound `CN[C@H](CC(C)C)C(=O)NC1C(=O)NC(CC#N)C(=O)NC2C(=O)NC3C(=O)NC(C(=O)NC(C(=O)OC)c4cc(OC)cc(OC)c4-c4cc3ccc4OC)C(O)c3ccc(c(Cl)c3)Oc3cc2cc(c3OC)Oc2ccc(cc2Cl)[C@H]1O` (stereo partly specified), the MIC in experiment [1] came to 1.6 µg/mL (≈ 1.34 µM); in experiment [2] it was 1.6 µg/mL (≈ 1.34 µM); in experiment [3], 50 µg/mL (≈ 41.8 µM).
As to `COC(=O)[C@H]1NC(=O)[C@H]2NC(=O)[C@H](NC(=O)[C@@H]3NC(=O)[C@H]4NC(=O)[C@H](NC(=O)[C@H](N)c5ccc(O)c(c5)Oc5cc4cc(O)c5C)[C@H](O)c4ccc(cc4)Oc4cc3cc(c4O)Oc3ccc(cc3)[C@H]2O)c2ccc(O)c(c2)-c2c(O)cc(O)cc21`, the results for the MIC in experiment [1], in experiment [2] and in experiment [3] were 25 µg/mL (≈ 21.3 µM), 0.8 µg/mL (≈ 0.681 µM) and more than 100 µg/mL, respectively.
In the case of `CN[C@H](CC(C)C)C(=O)N[C@H]1C(=O)N[C@@H](CC(N)=O)C(=O)N[C@H]2C(=O)N[C@H]3C(=O)N[C@H](C(=O)N[C@H](C(=O)O)c4cc(O)cc(O)c4-c4cc3ccc4O)[C@H](O)c3ccc(c(Cl)c3)Oc3cc2cc(c3O)Oc2ccc(cc2Cl)[C@H]1O` [VANCOMYCIN AGLYCON], the MIC is 25 µg/mL (≈ 21.9 µM) in experiment [1], 0.8 µg/mL (≈ 0.699 µM) in experiment [2] and more than 100 µg/mL in experiment [3].
On to `CN[C@H](CC(C)C)C(=O)NC1C(=O)NC(CC(N)=O)C(=O)NC2C(=O)NC3C(=O)NC(C(=O)NC(C(=O)OC)c4cc(OC)cc(OC)c4-c4cc3ccc4OC)C(O)c3ccc(c(Cl)c3)Oc3cc2cc(c3OC)Oc2ccc(cc2Cl)[C@H]1O` (stereo partly specified), for which the MIC is 1.6 µg/mL (≈ 1.32 µM) in experiment [1], 1.6 µg/mL (≈ 1.32 µM) in experiment [2] and 50 µg/mL (≈ 41.2 µM) in experiment [3].

These data come from ChEMBL document CHEMBL1136190, “Synthesis and evaluation of methyl ether derivatives of the vancomycin, teicoplanin, and ristocetin aglycon methyl esters” (2003).
